Values quoted from earlier work as cited in patent publication US20090325918A1, “Synthesis and separation of optically active isomers and cyclopropyl derivatives of spironolactone and their biological action” (priority 2008, published 2009).

Columns and labels:
[1] = test system: hypertensive patients; settings: hypertensive patients using spironolactone for therapy; 1% of men in the placebo group
[2] = test system: patients with congestive heart failure (CHF)

For CC(=O)S[C@@H]1CC2=CC(=O)CC[C@]2(C)[C@H]2CC[C@@]3(C)[C@@H](CC[C@@]34CCC(=O)O4)[C@H]12 [spironolactone, 17-hydroxy-7-alpha-mercapto-3-oxo-17-alpha-pregn-4-ene-21-carboxylic acid gamma-lactone acetate], the “Gynecomastia or tender breast enlargement, occurrence in patients” value [1] is listed as 10%, the Water solubility is listed as “poor” and the “Reduction in mortality (risk of death)” value ([2]; CHF patients taking digoxin and a loop diuretic, spironolactone with digitalis and ACE inhibitor) is listed as 30%. For the same compound, the “Patients who discontinued treatment because of adverse events” value ([2]; spironolactone group) was 8% and the “Frequency of hospitalization for worsening heart failure, lower than in the placebo group” value ([2]; spironolactone treated group vs placebo group) was 35%.
